The numbers were not newly measured in patent publication US20100310652A1, “COATED EXTENDED RELEASE PHARMACEUTICAL COMPOSITIONS OF LEVETIRACETAM” (Alembic Limited, priority 2007, published 2010), which cites them from elsewhere.

For series [1] the following is noted: highly permeable.
The conditions of series [2]: in 15 minutes, three different pH media.

Each structure is given as a SMILES string. In brackets after ≈: the same amount, converted by molar mass. Bounds are passed on as bounds.

Take `CC[C@@H](C(N)=O)N1CCCC1=O` [Levetiracetam, (−)-(S)-α-ethyl-2-oxo-1-pyrrolidine acetamide]: the aqueous solubility – broadly, the dissolved amount per volume that the medium holds – is 1040 mg/mL (≈ 6110 mM). Further, in series [1], the “permeability (F)” value is recorded as more than 90%. Moreover, the drug released result in series [2] is “more than 85%”.
